Where two headings read alike, the source gives them in different places.
Molecular target: T1, recombinant human GST-Syk (Homo sapiens, UniProt P43405)
T1 construct: purchased Carna Biosciences 08-176
Assay: Homogeneous Time-Resolved Fluorescence (HTRF) assay for the recombinant human Syk enzyme
Type: biochemical
Conditions: ATP 25 μM, 10-dose titration
Summary of the method: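 Recombinant GST-hSyk ([…]) was preincubated 10 min at room temperature with inhibitor (0.1% DMSO) in Tris pH 7.5, then reacted for 45 min with 250 nM biotinylated peptide, 5 mM Mg and 25 μM ATP. Phosphorylation was detected by HTRF (Eu-anti-phosphotyrosine/SA-APC). IC50 was derived from a 10-dose titration (10 μM–0.508 nM) with a 4-parameter fit.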

| SMILES | IC50 (read-out: rhSYK Activity) [nM] | IC50 (read-out: rhSYK IC50) [nM] |
| --- | --- | --- |
| Cc1ccnc(Nc2cc(C)cc(-n3cnc(C(C)(C)O)c3)n2)c1 [Example 87, 2-(1-{4-methyl-6-[(4-methylpyridin-2-yl)amino]pyridin-2-yl}-1H-imidazol-4-yl)propan-2-ol] | ≤ 100 |  |
| Cc1cc(Nc2nccc(C(F)(F)F)n2)cc(-n2cnc([C@H]3CC[C@H](C(=O)O)CC3)c2)c1 [2 (trans), Trans-4-[1-(3-methyl-5-{[4-(trifluoromethyl)pyrimidin-2-yl]amino}phenyl)-1H-imidazol-4-yl]cyclohexanecarboxylic acid] | ≤ 100 | 1.2 |
| Cc1cc(Nc2nccc(C(F)(F)F)n2)cc(-n2cnc(C3(O)CCNC(=O)CC3)c2)c1 (stereo not drawn) [Example 109, 5-hydroxy-5-[1-(3-methyl-5-{[4-(trifluoromethyl)pyrimidin-2-yl]amino}phenyl)-1H-imidazol-4-yl]azepan-2-one] | ≤ 100 | 19.7 |
| CNC(=O)[C@H]1CC[C@](O)(c2cn(-c3cc(C)cc(Nc4nccc(C(F)(F)F)n4)c3)cn2)CC1 [Example 1, Cis-4-hydroxy-N-methyl-4-[1-(3-methyl-5-{[4-(trifluoromethyl)pyrimidin-2-yl]amino}phenyl)-1H-imidazol-4-yl]cyclohexanecarboxamide] | ≤ 100 | 6.1 |
| Cc1cc(Nc2nccc(C(F)(F)F)n2)cc(-n2cnc(C3(O)CCC(=O)CC3)c2)c1 [Example 53, 4-hydroxy-4-[1-(3-methyl-5-{[4-(trifluoromethyl)pyrimidin-2-yl]amino}phenyl)-1H-imidazol-4-yl]cyclohexanone] | ≤ 100 |  |
| Cc1cc(Nc2nccc(C3CC3)n2)cc(-n2cnc([C@]3(O)CC[C@@H](OC(=O)c4ccccc4)CC3)c2)c1 [Example 42, cis-4-(1-{3-[(4-cyclopropylpyrimidin-2-yl)amino]-5-methylphenyl}-1H-imidazol-4-yl)-4-hydroxycyclohexyl benzoate] | ≤ 100 |  |
| COC(=O)c1cn(-c2cccc(Nc3cc(C(F)(F)F)ccn3)n2)cn1 [Example 96, Methyl 1-(6-{[4-(trifluoromethyl)pyridin-2-yl]amino}pyridin-2-yl)-1H-imidazole-4-carboxylate] | ≤ 100 |  |
| Cc1cc(Nc2cc(C(F)(F)F)ccn2)nc(-n2cnc([C@]3(O)CC[C@@H](C(=O)O)CC3)c2)c1 [Example 27, cis-4-hydroxy-4-[1-(4-methyl-6-{[4-(trifluoromethyl)pyridin-2-yl]amino}pyridin-2-yl)-1H-imidazol-4-yl]cyclohexanecarboxylic acid] | ≤ 100 | 0.757 |
| Cc1cc(Nc2ncc(F)c(C3CC3)n2)cc(-n2cnc([C@]3(O)CC[C@@H](O)CC3)c2)c1 [Example 59, cis-1-(1-{3-[(4-cyclopropyl-5-fluoropyrimidin-2-yl)amino]-5-methylphenyl}-1H-imidazol-4-yl)cyclohexane-1,4-diol] | ≤ 100 |  |
| CC(C)(O)c1cn(-c2cccc(Nc3cc(C(F)(F)F)ccn3)n2)cn1 [Example 94, 2-[1-(6-{[4-(trifluoromethyl)-pyridin-2-yl]amino}-pyridin-2-yl)-1H-imidazol-4-yl]propan-2-ol] | ≤ 100 |  |
| Cc1cc(Nc2nccc(C(F)(F)F)n2)cc(-n2cnc(C3(O)CCC(C(=O)O)CC3)c2)c1 (stereo not drawn) [Example 35, trans-4-hydroxy-4-[1-(3-methyl-5-[[4-(trifluoromethyl)pyrimidin-2-yl]amino}phenyl)-1H-imidazol-4-yl]cyclohexanecarboxylic acid] | ≤ 100 |  |
| Cc1cc(Nc2ncc(F)c(C)n2)cc(-n2cnc([C@]3(O)CC[C@@H](OC(=O)c4ccccc4)CC3)c2)c1 [Example 58, cis-4-(1-{3-[(5-fluoro-4-methylpyrimidin-2-yl)amino]-5-methylphenyl}-1H-imidazol-4-yl)-4-hydroxycyclohexyl benzoate] | 100 to 1000 |  |
| Cc1cc(Nc2nccc(C(F)(F)F)n2)cc(-n2cnc(C(=O)N3CCCC3)c2)c1 [Example 88, N-{3-methyl-5-[4-(pyrrolidin-1-ylcarbonyl)-1H-imidazol-1-yl]phenyl}-4-(trifluoromethyl)pyrimidin-2-amine] | ≤ 100 |  |
| Cc1cc(Nc2cc(C(F)(F)F)ccn2)nc(-n2cnc([C@]3(O)CC[C@@H](CC(=O)O)CC3)c2)c1 [Example 14, {cis-4-hydroxy-4-[1-(4-methyl-6-{[4-(trifluoromethyl)pyridin-2-yl]amino}pyridin-2-yl)-1H-imidazol-4-yl]cyclohexyl}acetic acid] | ≤ 100 | 0.861 |
| CCOC(=O)C1CCC(O)(c2cn(-c3cc(C)cc(Nc4nccc(C(F)(F)F)n4)c3)cn2)CC1 (stereo not drawn) [Example 36, Ethyl trans-4-hydroxy-4-[1-(3-methyl-5-{[4-(trifluoromethyl)pyrimidin-2-yl]amino}phenyl)-1H-imidazol-4-yl]-cyclohexanecarboxylate] | ≤ 100 |  |
| Cc1cc(Nc2nccc(C(F)(F)F)n2)cc(-n2cnc([C@]3(O)CC[C@H](OC(=O)c4ccccc4)CC3)c2)c1 [Example 66, trans-4-hydroxy-4-[1-(3-methyl-5-{[4-(trifluoromethyl)pyrimidin-2-yl]amino}phenyl)-1H-imidazol-4-yl]cyclohexyl benzoate] | 100 to 1000 |  |
| Nc1cc(Nc2cc(C(F)(F)F)ccn2)nc(-n2cnc(C(O)(C3CC3)C3CC3)c2)c1 [Example 84] | ≤ 100 |  |
| CC(C)(O)c1cn(-c2cccc(Nc3cc(Cl)ccn3)n2)cn1 [Example 101, 2-(1-{6-[(4-chloropyridin-2-yl)amino]pyridin-2-yl}-1H-imidazol-4-yl)propan-2-ol] | ≤ 100 |  |
| Cc1cc(Nc2nccc(C(F)(F)F)n2)cc(-n2cnc(C(C)(O)[C@H]3CC[C@H](C(=O)O)CC3)c2)c1 (relative stereo) [Example 10, trans-4-{1-hydroxy-1-[1-(3-methyl-5-{[4-(trifluoromethyl)pyrimidin-2-yl]amino}phenyl)-1H-imidazol-4-yl]ethyl}-cyclohexanecarboxylic acid] | ≤ 100 | 1.78 |
| CC(C)(O)c1cn(-c2cc(Nc3nccc(C(F)(F)F)n3)cc(N3CCOCC3)c2)cn1 [Example 107, 2-[1-(3-morpholin-4-yl-5-{[4-(trifluoromethyl)pyrimidin-2-yl]amino}-phenyl)-1H-imidazol-4-yl]propan-2-ol] | ≤ 100 |  |
| COC(=O)c1cn(-c2cc(C)cc(Nc3cc(C(F)(F)F)ccn3)n2)cn1 [Example 93, Methyl 1-(4-methyl-6-{[4-(trifluoromethyl)-pyridin-2-yl]amino}-pyridin-2-yl)-1H-imidazole-4-carboxylate] | ≤ 100 |  |
| COC(=O)c1cn(-c2cc(N)cc(Nc3cc(C(F)(F)F)ccn3)n2)cn1 [Example 85, Methyl 1-(4-amino-6-{[4-(trifluoromethyl)-pyridin-2-yl]amino}-pyridin-2-yl)-1H-imidazole-4-carboxylate] | ≤ 100 |  |
| Cc1cc(Nc2nccc(C(F)(F)F)n2)cc(-n2cnc([C@]3(O)CC[C@@H](C(=O)N4CCOCC4)CC3)c2)c1 [Example 30, cis-1-[1-(3-methyl-5-{[4-(trifluoromethyl)pyrimidin-2-yl]amino}phenyl)-1H-imidazol-4-yl]-4-(morpholin-4-ylcarbonyl)cyclohexanol] | ≤ 100 |  |
| Cc1cc(Nc2nccc(C(F)(F)F)n2)cc(-n2cnc(C3(O)CCC(C(=O)N4CCCC4)CC3)c2)c1 (stereo not drawn) [Example 31, cis-1-[1-(3-methyl-5-{[4-(trifluoromethyl)pyrimidin-2-yl]amino}phenyl)-1H-imidazol-4-yl]-4-(pyrrolidin-1-ylcarbonyl)cyclohexanol] | ≤ 100 |  |
